Experimental data taken from paper PMC9947563, “Identification of the molecular determinants of antagonist potency in the allosteric binding pocket of human P2X4” (Frontiers in Pharmacology, 2023).
Changes are numbered by the printed parent chain. pEC50, pIC50: −log10 of the molar value. Read-outs that look alike come from different tables or passages of the source.

How the values were obtained:
[1] = tested on: human P2X4 open channel; design: method as in Bidula et al. (2022); settings: ref Bidula et al. (2022); cited from earlier work
[2] = tested on: rP2X4; settings: cited from earlier work
[3] = tested on: mP2X4; settings: cited from earlier work
[4] = target: T1, rat P2X4 wild type (r4-WT) (Rattus norvegicus, UniProt P51577); assay: ATP-induced calcium influx (Fluo-4) in 1321N1 cells stably expressing rat P2X4 wild type; type: cell-based; settings: 1321N1 cells, rat P2X4 WT
T1 construct: expressed in transfected cells; host or cells: 1321N1 astrocytoma cells, stably transfected
T1 sequence (P51577 1-388): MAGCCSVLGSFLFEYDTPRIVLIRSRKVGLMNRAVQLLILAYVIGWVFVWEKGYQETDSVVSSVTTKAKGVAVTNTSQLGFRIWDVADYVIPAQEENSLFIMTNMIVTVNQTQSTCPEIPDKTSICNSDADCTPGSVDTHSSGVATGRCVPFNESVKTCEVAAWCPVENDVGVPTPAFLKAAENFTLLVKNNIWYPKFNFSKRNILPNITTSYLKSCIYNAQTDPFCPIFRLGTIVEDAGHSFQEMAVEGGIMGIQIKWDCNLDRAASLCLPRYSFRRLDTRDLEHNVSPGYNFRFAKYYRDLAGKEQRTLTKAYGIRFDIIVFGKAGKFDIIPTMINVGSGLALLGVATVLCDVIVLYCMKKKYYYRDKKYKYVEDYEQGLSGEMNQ
Description: (§1) 1321N1 astrocytoma cells were cultured (at 37°C, 5% CO2) in Dulbecco’s modified Eagle’s medium (DMEM/F-12 with Glutamax) supplemented with 10% foetal bovine serum (FBS) and 200 unit/mL of penicillin and streptomycin antibiotics (Fisher Scientific). Stably transfected clones were grown in DMEM/F-12 with Glutamax medium supplemented with G-418 (Geneticin®, Fisher Scientific), 600 μg/mL and 150 μg/mL during selection and maintenance, respectively. FuGene HD Transfection Reagent (Promega) was used according to the manufacturer’s protocol for the generation of stable cell line expressing h4-WT, r4-WT, h4-I312T, and r4-T312I. Each cell line was then tested for P2X4 receptor expression by Western blot and for functionality using the Ca^2+ influx assay.
(§2) Cells were plated the day before assay into poly-lysine-coated 96-well plates at 40–55,000 cells/mL. To load cells with calcium-sensitive fluorescent dye, culture medium was replaced with modified Ringer’s buffer (140 mM NaCl, 10 mM HEPES, 10 mM Glucose, 1 mM MgCl2, 1 mM CaCl2, 2.5 mM KCl, 0.5% BSA, pH = 7.4) containing 2.6 μM FLUO4-AM (Fisher Scientific) and 250 μM probenecid (Sigma), and cells were incubated for 20–30 min. Prior to assay, buffer was replaced with fresh modified Ringer’s buffer containing probenecid but not the dye. […] A Fluoroskan Ascent FL plate reader (Fisher Scientific) equipped with a solution dispenser and an appropriate filter pair (excitation: 485 nm, emission: 538 nm) was used to record 5-s baseline followed by P2X4-mediated calcium influx measurements for 20–25 s after ATP stimulation (final concentration ranging between 0.03 and 100 μM in buffered solution, pH = 7.4). The collected responses were normalized to the first data-point recorded after ATP injection.
(§3) Data processing and data analysis were carried out using Graphpad Prism version 6 for Mac. Figures are presented as Mean ± SEM. Statistical significance of any difference observed between samples was calculated through one-way ANOVA followed by Dunnett’s multiple comparisons test with a single pooled variance (control, unless otherwise specified) or, when comparing only two sets of data, using an unpaired t-test with Welch’s correction. When comparing data obtained from multiple independent experiments (N), each dataset was normalized to the mean value obtained for the vehicle control.

[5] = target: T2, human P2X4 I312T (h4-I312T) (Homo sapiens, UniProt Q99571, I312T); assay: ATP-induced calcium influx (Fluo-4) in 1321N1 cells stably expressing human P2X4 I312T; type: cell-based; settings: 1321N1 cells, human P2X4 I312T
T2 construct: expressed in transfected cells; host or cells: 1321N1 astrocytoma cells, stably transfected
T2 sequence (Q99571 1-388 I312T): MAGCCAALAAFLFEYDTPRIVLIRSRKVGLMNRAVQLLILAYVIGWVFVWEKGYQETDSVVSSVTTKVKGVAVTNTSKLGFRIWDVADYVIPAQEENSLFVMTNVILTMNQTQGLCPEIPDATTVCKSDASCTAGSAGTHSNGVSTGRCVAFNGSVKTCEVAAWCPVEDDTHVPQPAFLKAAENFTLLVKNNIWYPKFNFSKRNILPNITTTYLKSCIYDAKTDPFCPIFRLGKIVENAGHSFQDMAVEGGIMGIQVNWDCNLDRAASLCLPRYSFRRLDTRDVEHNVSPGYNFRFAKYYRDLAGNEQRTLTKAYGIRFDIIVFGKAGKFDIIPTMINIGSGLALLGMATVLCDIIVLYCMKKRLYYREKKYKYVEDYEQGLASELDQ
Description: Plasmid encoding rat P2X4 (r4-WT) ([Royle et al., 2005]) was a kind gift from Ruth Murrell-Lagnado, whilst that encoding human P2X4 with a C-terminal (His)10 tag has been reported previously ([Young et al., 2008]).
as §1, with “FuGene HD Transfection Reagent (Promega) was used according to the manufacturer’s protocol for the generation of stable cell line expressing h4-WT, r4-WT, h4-I312T, and r4-T312I.” left out
as §2, with “To load cells with calcium-sensitive fluorescent dye, culture medium was replaced with modified Ringer’s buffer (140 mM NaCl, 10 mM HEPES, 10 mM Glucose, 1 mM MgCl2, 1 mM CaCl2, 2.5 mM KCl, 0.5% BSA, pH = 7.4) containing 2.6 μM FLUO4-AM (Fisher Scientific) and 250 μM probenecid (Sigma), and cells were incubated for 20–30 min.” left out
(§4) Data processing and data analysis were carried out using Graphpad Prism version 6 for Mac. Figures are presented as Mean ± SEM. […] When comparing data obtained from multiple independent experiments (N), each dataset was normalized to the mean value obtained for the vehicle control.

[6] = target: T3, human P2X4 wild type (h4-WT) (Homo sapiens, UniProt Q99571); assay: ATP-induced calcium influx (Fluo-4) in 1321N1 cells stably expressing human P2X4 wild type; type: cell-based; settings: 1321N1 cells, human P2X4 WT
T3 construct: expressed in transfected cells; host or cells: 1321N1 astrocytoma cells, stably transfected
T3 sequence (Q99571 1-388): T2 sequence (Q99571 1-388 I312T) with T312I
Description: as §1, with “FuGene HD Transfection Reagent (Promega) was used according to the manufacturer’s protocol for the generation of stable cell line expressing h4-WT, r4-WT, h4-I312T, and r4-T312I.” left out
as §2, with “To load cells with calcium-sensitive fluorescent dye, culture medium was replaced with modified Ringer’s buffer (140 mM NaCl, 10 mM HEPES, 10 mM Glucose, 1 mM MgCl2, 1 mM CaCl2, 2.5 mM KCl, 0.5% BSA, pH = 7.4) containing 2.6 μM FLUO4-AM (Fisher Scientific) and 250 μM probenecid (Sigma), and cells were incubated for 20–30 min.” left out
as §4

[7] = target: T4, rat P2X4 T312I (r4-T312I) (Rattus norvegicus, UniProt P51577, T312I); assay: ATP-induced calcium influx (Fluo-4) in 1321N1 cells stably expressing rat P2X4 T312I; type: cell-based; settings: 1321N1 cells, rat P2X4 T312I
T4 construct: expressed in transfected cells; host or cells: 1321N1 astrocytoma cells, stably transfected
T4 sequence (P51577 1-388 T312I): T1 sequence (P51577 1-388) with T312I
Text: Plasmid encoding rat P2X4 (r4-WT) ([Royle et al., 2005]) was a kind gift from Ruth Murrell-Lagnado, whilst that encoding human P2X4 with a C-terminal (His)10 tag has been reported previously ([Young et al., 2008]). Plasmids containing rat P2X4 T312I (r4-T312I) and human P2X4 I312T mutants (h4-I312T) were generated using the QuikChange Lightning site-directed mutagenesis kit (Agilent) according to manufacturer’s instructions. Sequencing of the constructs and of the genomic DNA from stably transfected cells confirmed correct full coding sequences.
as §1, §2, §3

[8] = tested on: hP2X4; settings: read-out: hP2X4 IC50, cited from earlier work
[9] = tested on: injury-induced allodynia; design: method as in Matsumura et al., 2016; Ushioda et al., 2020; settings: ref Matsumura et al., 2016; Ushioda et al., 2020; cited from earlier work
[10] = ref Hernandez-Olmos et al., 2012; cited from earlier work
[11] = tested on: P2X4; design: method as in Hernandez-Olmos et al., 2012; settings: ref Hernandez-Olmos et al., 2012; cited from earlier work
[12] = approximate value for the series, ref Matsumura et al., 2016, Ushioda et al., 2020, read-out: IC50 at mouse P2X4
[13] = ref Hernandez-Olmost et al. (2012)

SMILES: O=C1CN=C(c2cccc(Br)c2)c2oc3ccccc3c2N1 [5-BDBD]
- capability of blocking the open channel [1]: not
- pIC50 ([2]; ref Abdelrahman et al. (2017)): 5.46
- pIC50 ([2]; ref Coddou et al. (2019)): 6.12
- pIC50 ([3]; ref Abdelrahman et al. (2017), read-out: mP2X4 IC50): 5.69

SMILES: Nc1ncnc2c1ncn2[C@@H]1O[C@H](COP(=O)(O)OP(=O)(O)OP(=O)(O)O)[C@@H](O)[C@H]1O [ATP]
- ATP pEC50 (± SEM) [4]: 5.770 (± 0.0507)
- pEC50 [4]: 5.77
- Hill coefficient (ATP concentration-response) [4]: 1.441
- ATP pEC50 (± SEM) [5]: 6.112 (± 0.028)
- pEC50 [5]: 6.11
- Hill coefficient (ATP concentration-response) [5]: 2.057
- ATP pEC50 (± SEM) [6]: 5.901 (± 0.0577)
- pEC50 [6]: 5.90
- Hill coefficient (ATP concentration-response) [6]: 1.098
- ATP pEC50 (± SEM) [7]: 6.136 (± 0.0645)
- pEC50 [7]: 6.14
- Hill coefficient (ATP concentration-response) [7]: 2.475

SMILES: NS(=O)(=O)c1cc(NC(=O)Cc2ccccc2)ccc1Oc1cccc(Cl)c1 [BAY-1797, N-[4-(3-Chlorophenoxy)-3-sulfamoylphenyl]-2-phenylacetamide]
- pIC50 ([2]; ref Werner et al. (2019)): 7.00
- pIC50 ([3]; ref Werner et al. (2019), read-out: mP2X4 IC50): 6.70

SMILES: O=C(C1CC1)N1CCc2cc(Br)c(S(=O)(=O)Nc3ccc(Cl)c(C(F)(F)F)c3)cc21 [Indophagolin]
- pIC50 ([8]; ref Carnero Corrales et al. (2021)): 6.85

SMILES: CC(C)c1ccc(NC(=S)NC(=O)C23CC4CC(CC(C4)C2)C3)c(Br)c1 [Mahmood-4n]
- pIC50 ([8]; ref Mahmood et al. (2022a)): 7.40

SMILES: O=C(NC(=S)Nc1c(Br)ccc(C(F)(F)F)c1Br)c1ccc2c(c1)OCO2 [Mahmood-9g]
- pIC50 ([8]; ref Mahmood et al. (2022b)): 7.26

SMILES: CC(C)c1ccc(NC(=S)NC(=O)c2ccc3c(c2)OCO3)c(Br)c1 [Mahmood-9o]
- pIC50 ([8]; ref Mahmood et al. (2022b)): 7.41

SMILES: O=C1CC(=O)N(c2cccc(-c3noc(=S)[nH]3)c2)c2ccc3ccccc3c2N1 [NP-1815-PX]
- effect in in vivo rodent model of injury-induced allodynia [9]: anti-allodynic effect
- pIC50 [3, 12]: ~6.60

SMILES: O=C1CC(=O)N(c2ccc(NS(=O)(=O)Cc3ccccc3Cl)cc2)c2ccc3ccccc3c2N1 [NP-A]
- effect in in vivo rodent model of injury-induced allodynia [9]: anti-allodynic effect
- pIC50 [3, 12]: ~6.60

SMILES: O=C1CC(=O)N(c2ccc(NC(=O)c3ccccc3I)cc2)c2ccc3ccccc3c2N1 [NP-B]
- pIC50 ([8]; ref Matsumura et al., 2016, Ushioda et al., 2020): 6.37
- effect in in vivo rodent model of injury-induced allodynia [9]: anti-allodynic effect
- pIC50 [3, 12]: ~6.60

SMILES: O=C(OCc1ccccc1)N1c2ccccc2Oc2ccccc21 [PSB-12054]
- pIC50 [2, 13]: 5.68
- pIC50 [8, 13]: 6.72
- solubility (in words) [10]: partial solubility
- pIC50 ([3]; ref Hernandez-Olmost et al. (2012), read-out: mP2X4 IC50): 5.74
- potency as P2X4 antagonist (in words) [11]: low micromolar range

SMILES: Cc1ccc(S(=O)(=O)N2c3ccccc3Oc3ccccc32)cc1 [PSB-12062]
- potency as P2X4 antagonist (in words) [11]: low micromolar range

SMILES: Cc1c(-c2cccc(-c3nnn[nH]3)c2)c2[nH]c3ccccc3c2[nH]c1=O [Sunovion-A]
- pIC50 ([8]; ref Newcom and Spear (2013)): > 7.00
